{"source": "patent US20260285873A1", "about": "“CYCLIC COMPOUNDS USED AS MULTI-TARGET KINASE INHIBITORS AND PREPARATION METHOD THEREFOR” (Shanghai Institute of Organic Chemistry, Chinese Academy of …, priority 2022, published 2026)", "key": {"[1]": {"test": "Oral pharmacokinetic study in rats", "type": "in vivo", "settings": "rat, brain, male SD rats, oral gavage, read-out: B/P (1 h)", "method": "Drug preparation: 1% MC was added to the compound, ground, and shaken uniformly. Samples were collected at 5 min, 15 min, 30 min, 1 h, 2 h, 4 h, and 8 h post-dose, followed by analysis using liquid chromatography-tandem mass spectrometry (LC-MS/MS)."}, "LRRK2 wt": {"molecular_target": "LRRK2 wt (Homo sapiens, UniProt Q5S007)", "sequence (Q5S007 whole entry)": "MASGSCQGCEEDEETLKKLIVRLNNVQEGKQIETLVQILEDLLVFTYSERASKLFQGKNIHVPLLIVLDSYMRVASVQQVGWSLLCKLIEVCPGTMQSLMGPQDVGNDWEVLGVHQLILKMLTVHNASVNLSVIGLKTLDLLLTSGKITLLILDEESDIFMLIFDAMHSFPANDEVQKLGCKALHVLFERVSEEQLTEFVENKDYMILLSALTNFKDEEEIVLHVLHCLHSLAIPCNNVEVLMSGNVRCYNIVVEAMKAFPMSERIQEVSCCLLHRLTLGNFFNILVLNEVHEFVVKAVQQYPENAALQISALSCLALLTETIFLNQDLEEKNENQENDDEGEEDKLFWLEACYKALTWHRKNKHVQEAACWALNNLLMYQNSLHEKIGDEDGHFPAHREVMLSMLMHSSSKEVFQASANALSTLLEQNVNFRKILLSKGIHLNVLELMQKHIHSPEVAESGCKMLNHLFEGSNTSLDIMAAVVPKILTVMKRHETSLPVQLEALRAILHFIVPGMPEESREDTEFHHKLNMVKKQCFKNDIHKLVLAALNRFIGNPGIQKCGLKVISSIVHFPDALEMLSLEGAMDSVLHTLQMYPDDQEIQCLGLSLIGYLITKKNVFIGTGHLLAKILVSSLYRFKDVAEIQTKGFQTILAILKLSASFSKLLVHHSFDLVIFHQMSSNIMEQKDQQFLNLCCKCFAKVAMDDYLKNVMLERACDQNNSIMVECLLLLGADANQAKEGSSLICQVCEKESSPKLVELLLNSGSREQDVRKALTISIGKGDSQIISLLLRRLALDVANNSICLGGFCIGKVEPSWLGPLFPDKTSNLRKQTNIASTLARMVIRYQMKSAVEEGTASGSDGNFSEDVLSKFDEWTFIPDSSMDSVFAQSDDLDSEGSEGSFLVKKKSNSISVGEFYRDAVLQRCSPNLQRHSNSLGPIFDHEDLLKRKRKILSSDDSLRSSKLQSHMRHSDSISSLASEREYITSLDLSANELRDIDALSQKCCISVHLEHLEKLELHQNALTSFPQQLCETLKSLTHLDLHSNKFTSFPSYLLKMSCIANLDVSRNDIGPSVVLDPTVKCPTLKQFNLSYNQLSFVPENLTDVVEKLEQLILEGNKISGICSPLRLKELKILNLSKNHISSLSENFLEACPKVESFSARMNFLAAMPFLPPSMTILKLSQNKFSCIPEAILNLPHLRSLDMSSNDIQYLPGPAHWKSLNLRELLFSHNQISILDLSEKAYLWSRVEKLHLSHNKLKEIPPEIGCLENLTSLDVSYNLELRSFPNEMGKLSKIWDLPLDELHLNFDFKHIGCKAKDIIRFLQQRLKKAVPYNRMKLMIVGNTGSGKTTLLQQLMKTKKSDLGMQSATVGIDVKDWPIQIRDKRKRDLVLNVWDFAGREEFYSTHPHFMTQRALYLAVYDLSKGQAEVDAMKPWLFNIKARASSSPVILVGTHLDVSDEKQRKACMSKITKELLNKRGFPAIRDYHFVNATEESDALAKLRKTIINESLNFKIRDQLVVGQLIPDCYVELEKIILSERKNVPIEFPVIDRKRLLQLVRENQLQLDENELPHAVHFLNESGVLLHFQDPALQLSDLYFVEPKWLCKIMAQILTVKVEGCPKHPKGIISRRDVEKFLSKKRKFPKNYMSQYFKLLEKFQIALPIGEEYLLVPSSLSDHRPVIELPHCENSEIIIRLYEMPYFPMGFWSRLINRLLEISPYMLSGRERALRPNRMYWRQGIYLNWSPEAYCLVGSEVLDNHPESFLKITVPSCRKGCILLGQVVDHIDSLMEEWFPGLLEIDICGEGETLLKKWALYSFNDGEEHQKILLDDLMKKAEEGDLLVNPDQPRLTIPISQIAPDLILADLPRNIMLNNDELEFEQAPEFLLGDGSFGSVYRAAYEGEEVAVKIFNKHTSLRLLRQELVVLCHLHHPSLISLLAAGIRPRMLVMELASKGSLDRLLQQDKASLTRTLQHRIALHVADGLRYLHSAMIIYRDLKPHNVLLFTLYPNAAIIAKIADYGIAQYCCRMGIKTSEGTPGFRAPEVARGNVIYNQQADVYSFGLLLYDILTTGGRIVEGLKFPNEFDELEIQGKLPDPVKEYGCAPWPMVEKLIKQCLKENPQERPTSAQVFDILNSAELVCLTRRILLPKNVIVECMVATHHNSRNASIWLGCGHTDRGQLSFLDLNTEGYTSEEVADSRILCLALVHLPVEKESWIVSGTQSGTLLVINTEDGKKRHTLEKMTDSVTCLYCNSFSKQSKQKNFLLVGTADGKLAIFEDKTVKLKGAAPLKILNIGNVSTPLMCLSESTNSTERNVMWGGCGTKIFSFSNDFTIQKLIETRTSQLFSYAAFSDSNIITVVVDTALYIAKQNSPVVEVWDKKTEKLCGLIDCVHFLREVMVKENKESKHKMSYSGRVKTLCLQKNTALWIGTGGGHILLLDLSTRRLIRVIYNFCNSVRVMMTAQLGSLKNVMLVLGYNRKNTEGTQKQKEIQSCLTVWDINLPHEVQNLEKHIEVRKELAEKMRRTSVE", "test": "Kinase activity inhibition assay (ADP-Glo), LRRK2 wt", "type": "biochemical", "settings": "read-out: LRRK2 wt inhibition rate at 100 nM; compound at 100 nM", "method": "The kinase activity inhibition assay was performed by ICE Bioscience (Beijing) using ADP-Glo and HTRF methods."}}, "note": "Like-named read-outs stand apart in the source and are kept apart here."}
{"smiles": "Cc1nn2cc1Nc1ncc(C(F)(F)F)c(n1)NCCCNC(=O)C2(C)C", "note": "[Example T-1, (E)-3^3,4,4-Trimethyl-15-(trifluoromethyl)-3^1H-2,6,10-triaza-1(2,4)-pyrimidina-3(4,1)-pyrazolacyclodecan-5-one]", "values": [{"measurement": "Kp at 1 h", "setting": "[1]; 3 mg/kg, 3 mpk", "result": 0.13}]}
{"smiles": "Cc1nn2cc1Nc1ncc(C(F)(F)F)c(n1)NC1CCCC(C1)NC(=O)C2(C)C", "note": "(stereo not drawn) [Example T-42, (5^3R,E)-1^3,8,8-Trimethyl-3^5-(trifluoromethyl)-1^1H-2,4,6-triaza-3(2,4)-pyrimidina-1(4,1)-pyrazola-5(1,3)-cyclohexacyclooctan-7-one]", "values": [{"measurement": "inhibition at 0.1 µM", "setting": "LRRK2 wt", "result": 42.1, "unit": "%"}]}
{"smiles": "Cc1nn2cc1Nc1ncc3c(Cl)cc(n3n1)CCCNC(=O)C2(C)C", "note": "[Example T-25, (1^1Z,3^4E)-1^5-Chloro-3^3,4,4-trimethyl-3^1H-2,6-diaza-1(2,7)-pyrrolo[2,1-f][1,2,4]triazine-3(4,1)-pyrazolacyclononan-5-one]", "values": [{"measurement": "Kp at 1 h", "setting": "[1]; 5 mg/kg, 5 mpk", "result": 0.58}]}
